{
  "source": "patent US20240238232A1",
  "about": "“COMPOSITIONS AND METHODS FOR THE REDUCTION OR TREATMENT OF INSULIN RESISTANCE AND METABOLIC CONDITIONS” (AXCELLA HEALTH INC., priority 2018, published 2024)",
  "key": {"FATZO mouse model": {"system": "FATZO mouse model", "test": "Liver fibrosis score and Sirius Red collagen staining in FATZO mice on WDF, Example 5", "type": "in vivo", "conditions": "oral, 4 weeks, LIVRQNAC + G 3885 mg/kg, LRQNAC 2469 mg/kg, OCA 30 mg/kg/day", "description": "NASH was induced in 60 male FATZO mice by a western diet (Research Diet #D12079B; fat 40% kcal, protein 17% kcal, carbohydrate 43% kcal) supplemented with 500 fructose in the drinking water (WDF) during a 16 week induction phase. Diets and water were available ad libitum. Littermate control male FATZO mice fed with a control diet (n=6, Purina #5008; fat 17% kcal, protein 27% kcal, carbohydrate 56% kcal) and sterile water were set up for control purpose. Mice were housed in plastic cages with microisolator. Sterilized bedding was replaced once a week. Mice were housed three per cage and maintained on a twelve hour light cycle throughout study duration. Room temperature was monitored daily and maintained at 22-25° C. Body weight was recorded every week during the induction phase. […]\n[…], […]+G, LRQNAC, OCA and Vehicle were administered by oral gavage at a volume of 10 mL/kg throughout the study. Dosages were calculated by daily body weight. […]\nThe livers were evaluated using the NASH liver criteria for scoring. In this mouse study, one cross section of liver for each case was analyzed with the NASH score system. […] The NAS can range from 0 to 8 and is calculated by the sum of scores of steatosis (0-3), lobular inflammation (0-3) and hepatocyte ballooning (0-2) from H&E stained sections. Fibrosis was scored (0-4) from picrosirius red stained slides. […]"}, "[1]": {"system": "α-smooth muscle actin (αSMA), activated hepatic stellate cells", "test": "α-smooth muscle actin staining of liver sections (activated hepatic stellate cells) in STAM mice, Example 2", "type": "in vivo, mouse", "conditions": "A-1 1500 mg/kg twice daily, OCA 30 mg/kg once daily", "procedure": "Amino Acid Composition A-1 and Obeticholic acid (6α-ethyl-chenodeoxycholic acid; “OCA”) were tested for their ability to treat NASH in the STAM™ model (Stelic Institute & Co., Tokyo, Japan; Saito K. et al., 2015 Sci Rep 5:12466). Two additional groups of normal C57BL/6 mice fed standard chow and vehicle treated STAM™ mice were included as controls. All animals receiving treatment or vehicle were treated starting at 6 weeks until 9 weeks of age. Compounds were administered via oral gavage, with a dose volume of 10 ml/kg. Amino Acid Composition A-1 was administered twice daily at a dose of 1500 mg/kg, and OCA was administered once daily at a dose of 30 mg/kg.\nAmino Acid Composition A-1, OCA and Vehicle (described below) were administered by oral route in a volume of 10 mL/kg. Amino Acid Composition A-1 was solubilized in deionized water to 150 mg/ml (10 X). OCA (Advanced ChemBlocks Inc.) was resuspended in 0.5% methycellulose in water to 3 mg/ml (10 X). Amino Acid Composition A-1 was administered at a dose of 1500 mg/kg twice daily (9 am and 7 pm). OCA was administered at a dose of 30 mg/kg once daily (9 am).\nLiver sections of all mice were stained for the marker α-smooth muscle actin (αSMA) to identify activated hepatic stellate cells. Images were quantified using the percent of positively stained area was used as a measure of stellate cell activation. […]"}},
  "note": "“And” between values parts separate entries of the source, which are not always exact repeats. Equal values may be shown once.",
  "data": [
    {"smiles": "CC[C@H]1[C@@H](O)[C@@H]2[C@H](CC[C@]3(C)[C@@H]([C@H](C)CCC(=O)O)CC[C@@H]23)[C@@]2(C)CC[C@@H](O)C[C@@H]12", "note": "[OCA, 6α-ethyl-chenodeoxycholic acid]", "values": [
      {"measurement": "Fibrosis (score)", "setting": "FATZO mouse model", "result": "0.67 ± 0.167"},
      {"measurement": "Sirius Red (collagen staining)", "setting": "FATZO mouse model", "result": "1.59 ± 0.36"},
      {"measurement": "Activated hepatic stellate cells (mean positively stained area, α-smooth muscle actin)", "setting": "[1]; STAM mice, oral, 6 to 9 weeks of age", "result": "1.562+/−0.31% and 1.562%"},
      {"measurement": "Activated hepatic stellate cells (positively stained area, α-smooth muscle actin): raw data", "setting": "[1]; individual STAM mice", "result": "1.51% and 1.49% (2×) and 1.17% and 1.13% and 2.03% and 1.87% and 1.97% and 1.46%"}
    ]}
  ]
}
